Tests used:
vascular TP-receptor = experiment: Determination of the pA2 values of the antagonists towards TXA2 on rabbit saphene vein; parameters: species or system rabbit (New Zealand); conditions: rabbit saphene vein rings, 37° C., U 46619 10^-9 M to 10^-5 M, antagonist 20 minutes
Procedure: Determination of the pA2 Values of the Antagonists Towards TXA2 on Rabbit Saphene Vein
(§1) New Zealand rabbits (2.5 kg) are exsanguinated under anesthesia (pentobarbital, 30 mg/kg) and the saphene veins are rapidly removed and cut into 3-mm rings. These rings are mounted between two hooks in tanks thermostatically adjusted to 37° C., containing physiological saline (composition in mM: 118 NaCl; 25 NaHCO3; 10 glucose; 4.7 KCl; 1.25 CaCl2; 1.19 MgSO4; 1.14 KHPO4).
The physiological saline is bubbled with a mixture of 95% O2 /5% CO2. The lower hook constitutes the fixed point whereas the upper hook is connected to an isometric force sensor. The tissues are placed under a base tension of 1 gram. […]
After mounting, the preparations are left to stand for 90 minutes, with rinsing carried out every 30 minutes. After readjustment of the base tension, a contraction by a single dose of the TXA2 agonist, U 46619 at 10^-5 M, is induced in order to regularize the following contractions. […]
This EC50 is calculated routinely in the following way: the tension values are first converted into percentages relative to the maximum effect and these percentages are then plotted on a graph with the percentages on the Y-axis and the log (concentration) values on the X-axis. […] The concentration corresponding to the half-maximal effect (50%) can readily be calculated using the parameters of the straight line. […]

[1] = tested on: platelet aggregation induced by the TXA2 agonist, U 46619; experiment: Platelet aggregation in man (platelet-rich plasma, induced by U 46619); type: cell-based; conditions: human PRP, U 46619 0.3 μM, read-out: IC50, inhibition of platelet aggregation induced by U 46619
Procedure: Platelet aggregation in man
Venous blood is obtained from human volunteers who have not taken any aspirin for at least 14 days prior to the experiment. The blood is taken onto sodium citrate (0.109 M) (1 vol. of citrate by 9 vol. of blood). The platelet-rich plasma (PRP) is obtained after centrifugation (20° C.) at 200×g for 10 minutes. The number of platelets is, on average, 250,000 PL/mm^3. The PRP is stored at room temperature until the time of the test and is used within 2 hours of the blood being taken. The antagonists are tested according to the procedure described in Example 19, using U 46619 at a concentration of 0.3 μM.

Rabbit saphene vein = experiment: Non-endothelium-dependent relaxations in rabbit saphene vein; conditions: for IC50: Oryctolagus cuniculus, rabbit saphene vein, contraction with KCl (60 mM), read-out: 50% effective relaxant concentration (IC50)
Procedure: as §1
The physiological saline is bubbled with a mixture of 95% O2 /5% CO2. The lower hook constitutes the fixed point whereas the upper hook is connected to an isometric force sensor. The tissues are placed under a base tension of 1 gram. The pharmacological substances studied are prepared immediately before use. The drugs are dissolved in water or in dimethyl sulfoxide.
This EC50 is calculated routinely in the following way: the tension values are first converted into percentages relative to the maximum effect and these percentages are then plotted on a graph with the percentages on the Y-axis and the log (concentration) values on the X-axis. A linear regression is then carried out on the points between 10% and 90% (which corresponds to the linear part of the sigmoidal curve). The concentration corresponding to the half-maximal effect (50%) can readily be calculated using the parameters of the straight line. After washing and returning to the base line, the organ is placed in contact with the antagonist (8 different concentrations for each organ) for 20 minutes. A second effect/concentration curve is thus produced in the presence of the antagonist and the "treated" EC50 can then be calculated. This thus provides all the elements which allow the pA2 (competitive antagonism) or pD2 (non-competitive angatonism) to be calculated.
Determination of the Non-Endothelium-Dependent Relaxations in Rabbit Saphene Vein
Rabbit saphene veins are prepared and mounted as described in the above example. After stabilization, a contraction with KCl (60 mM) is induced. […] It is calculated as described in the above example.

| pA2 (vascular TP-receptor) | IC50 [1] [nM] | IC50 (Rabbit saphene vein) [µM] | inhibition of relaxations by guanylate cyclase inhibitor (in words) (Rabbit saphene vein; relaxations induced by the substances of the invention, ODQ) | Structure (SMILES) |
| --- | --- | --- | --- | --- |
| 9.5 | 140 | 10 | – | O=C(O)CCc1c(CCO[N+](=O)[O-])ccc2c1CCC(NS(=O)(=O)c1ccc(Cl)cc1)C2 (stereo not shown) [Example 2, 3-{6-[(4-Chlorophenylsulfonyl)amino]-2-(2-nitroxyethyl)-5,6,7,8-tetrahydronaphth-1-yl}propionic acid] |
| – | 140 | – | – | O=C(O)CCc1c(CO[N+](=O)[O-])ccc2c1CCC(NS(=O)(=O)c1ccc(Cl)cc1)C2 (stereo not shown) [Example 4, 3-[6-(4-Chlorophenylsulfonyl)amino-2-nitroxymethyl-5,6,7,8-tetrahydronaphth-1-yl]propionic acid] |
| 9.8 | – | 7.7 | – | O=C(O)CCc1cc(CCO[N+](=O)[O-])cc2c1CCC(NS(=O)(=O)c1ccc(Cl)cc1)C2 (stereo not shown) [Example 6, 3-{6-[(4-Chlorophenylsulfonyl)amino]-3-(2-nitroxyethyl)-5,6,7,8-tetrahydronaphth-1-yl}propionic acid] |
| – | – | – | capable of inhibiting relaxations | O=c1onc2cnc3ccccc3n12 [ODQ, reference compound] |

From patent publication US6013667A, “Benzenesulfonylamine compounds, process for preparing them and pharmaceutical compositions” (Adir Et Compagnie, priority 1997, dated 2000)
